{"source": "patent US20250042884A1", "about": "“3-ARYLOXYL-3-FIVE-MEMBERED HETEROARYL PROPYLAMINE COMPOUND AND USE THEREOF” (Shanghai Leado Pharmatech Co. Ltd., priority 2018, published 2025)", "key": {"ICR mice": {"test_system": "ICR mice", "test": "Mice acetic acid writhing pain model (visceral and inflammatory pain)", "type": "in vivo", "conditions": "for number of appearance of writhing reactions (visceral pain) within 30 min: 1 h before acetic acid, saline group 49 times", "procedure": "Male ICR mice, 22-25 g, were fasted but allowed to drink water freely for 2 h before administration. All ICR mice were weighed and grouped randomly, each group had >10 animals. […] The drug was administrated by gavage based on the weight of mice. 1.5% acetic acid solution (0.1 ml/10 g) was injected intraperitoneally 1 h after administration, and the number of times of visceral pain in each group was observed within 30 min. When concave abdomen, stretched trunk and hind claw, and high buttocks appeared, one number point was recorded. Finally, the number of appearance of the above phenomenon was counted within 30 minutes."}, "SD rats": {"test_system": "SD rats", "test": "Rat SNL model, mechanical allodynia test (nerve pain)", "type": "in vivo", "conditions": "1 h after administration, 10 mg/kg oral, hydrochloride salt; control group 3.967 ± 0.775", "protocol": "Male SPF grade SD rats, weighed 150 g-180 g, were selected. Aseptic operation during surgery was performed. The animals were anesthetized with sodium pentobarbital (50 mg/kg, intraperitoneal injection). The surgical area of animal waist was shaved and the skin was disinfected three times with iodophor and 70% ethanol. After the skin was dried, the operation was started. Surgical knife was used to make a longitudinal incision at the back of the sacrum of the animal waist to expose the left paraspinal muscles, and stretcher was used to separate muscle tissue to expose the spine. The left spinal nerves L5 and L6 were separated and ligated with a 6-0 silk thread, and the wound was sutured. After the operation, the animals were placed on electrothermal pad, and 5 mL of saline was injected subcutaneously to prevent dehydration. After the animals were fully awakened and could move around freely, the animals were put back in the cage.\nAfter the operation, the animals were adapted in the experimental environment for 15min/day for 3 days.\nThe animals were weighed to calculate the dose. […] After administration, mechanical allodynia test was performed. The rat was individually placed in a plexiglass box with a grid on the bottom of the box to ensure that the rat claw could be tested. The rats were allowed to adapt the environment for 15 min before test. After the adaptation was completed, the test fiber was used to test the center of the left hind claw of the rat. The test fiber comprises 8 test strengths: 3.61 (0.4 g), 3.84 (0.6 g), 4.08 (1 g), 4.31 (2 g), 4.56 (4 g), 4.74 (6 g), 4.93 (8 g), and 5.18 (15 g). […] During the test, rapid withdrawal of animal claw was recorded as pain response. When the test fiber was removed from animal skin, the withdrawal of animal claw was also recorded as pain response. If animal moved, the pain response was not recorded, and the test was repeated. […]\nMechanical allodynia was expressed as withdrawal threshold (PWT) in rat behavioral test, which was calculated with the following formula: […]"}, "TRPA1": {"target": "TRPA1 (Mus musculus (Mouse), UniProt Q8BLA8)", "sequence (Q8BLA8 whole entry)": "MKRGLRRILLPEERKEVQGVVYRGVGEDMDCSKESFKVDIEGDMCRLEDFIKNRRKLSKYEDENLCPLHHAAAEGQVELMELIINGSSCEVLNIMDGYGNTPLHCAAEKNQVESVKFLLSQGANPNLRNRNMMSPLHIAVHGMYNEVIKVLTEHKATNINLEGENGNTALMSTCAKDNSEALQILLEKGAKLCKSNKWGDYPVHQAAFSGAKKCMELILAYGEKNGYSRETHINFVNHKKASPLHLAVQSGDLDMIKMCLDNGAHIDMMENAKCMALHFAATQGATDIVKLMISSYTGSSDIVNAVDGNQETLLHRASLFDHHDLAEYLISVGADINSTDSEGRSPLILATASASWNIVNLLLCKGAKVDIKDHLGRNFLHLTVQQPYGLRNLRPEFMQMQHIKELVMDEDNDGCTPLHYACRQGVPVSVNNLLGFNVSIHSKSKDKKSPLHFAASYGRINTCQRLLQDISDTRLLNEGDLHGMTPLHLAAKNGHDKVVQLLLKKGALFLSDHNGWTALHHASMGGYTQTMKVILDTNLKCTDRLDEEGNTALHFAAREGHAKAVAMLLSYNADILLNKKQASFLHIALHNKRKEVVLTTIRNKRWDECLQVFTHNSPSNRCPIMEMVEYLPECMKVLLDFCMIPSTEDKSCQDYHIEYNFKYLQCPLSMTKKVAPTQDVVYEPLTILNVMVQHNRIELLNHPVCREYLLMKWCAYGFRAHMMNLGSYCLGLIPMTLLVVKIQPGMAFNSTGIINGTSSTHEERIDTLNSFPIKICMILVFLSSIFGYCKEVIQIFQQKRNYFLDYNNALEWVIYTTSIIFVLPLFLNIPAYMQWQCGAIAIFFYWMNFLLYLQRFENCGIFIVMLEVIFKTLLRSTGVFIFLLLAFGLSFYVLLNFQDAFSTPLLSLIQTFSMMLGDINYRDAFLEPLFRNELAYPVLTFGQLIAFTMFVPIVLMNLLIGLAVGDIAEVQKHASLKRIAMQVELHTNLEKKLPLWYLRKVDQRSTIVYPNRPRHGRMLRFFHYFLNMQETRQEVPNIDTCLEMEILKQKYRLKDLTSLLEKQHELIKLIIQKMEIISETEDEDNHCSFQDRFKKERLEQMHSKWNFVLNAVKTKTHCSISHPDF", "test": "IonWorks Barracuda (IWB) automated patch clamp detection of TRPA1 inhibitory activity", "type": "cell-based", "conditions": "for IC50: HEK293 cells stably expressing TRPA1", "procedure": "The inhibitory activity of some compounds in the examples of the present invention (as shown in Table 1) on transient receptor potential channel protein TRPA1 was tested in this example. The compound of formula A (WO2010075353) was used as a positive control compound: […]\nIon Works Barracuda (IWB) automated patch clamp detection was used as test method: HEK293 cells stably expressing TRPA1 were placed in DMEM medium containing 15 μg/mL Blasticidin S HCl, 200 μg/mL Hygromycin B and 10% FBS in the T175 culture flask, and cultured in 37° C., 5% CO2 incubator. When the cell density reached about 80%, the culture medium was removed, rinsed with phosphate buffered saline (PBS) without calcium and magnesium. 3 mL of Trypsin was added to digest for 2 min, 7 mL of culture medium was added to terminate the digestion. The cells were collected to 15 mL centrifuge tube and centrifuged at 800 rpm for 3 min. After the supernatant was removed, the cells were added to appropriate volume of extracellular fluid for re-suspending, and the cell density was controlled at 2-3×10^6/mL for IWB experiment. Extracellular fluid formulation (in mM): 140 NaCl, 5 KCl, 1 MgCl2, 10 HEPES, 0.5 EGTA, 10 Glucose (pH 7.4); intracellular fluid formulation (in mM): 140 CsCl, 10 HEPES, 5 EGTA, 0.1 CaCl2, 1 MgCl2 (pH 7.2). 28 mg/mL of amphotericin B was freshly prepared with DMSO on the day of experiment, and then final concentration of 0.1 mg/mL was prepared with intracellular fluid.\nPopulation patch clamp (PPC) plate was used in IWB experiment. The entire detection process was automatically carried out by the instrument. Extracellular fluid was added into 384 wells of PPC plate, and 6 µL of the intracellular fluid was added into plenum (under the PPC plate), 6 µL of cell fluid was added for sealing test, and finally the intracellular fluid in plenum was replaced with amphotericin B-containing intracellular fluid to establish a whole-cell recording mode after perforating sealed cells. The sampling frequency for recording TPRA1 current was 10 kHz, the cells were clamped at 0 mV, the voltage stimulation command (channel protocol) was a ramp voltage from −100 mV to +100 mV for 300 ms. This voltage stimulation was applied every 10 s, mTRPA1current was induced by 300 µM AITC.\nData recording and current amplitude measurement export were carried out by IWB software (version 2.5.3, Molecular Devices Corporation, Union City, CA). No statistics was recorded for holes with sealing impedance lower than 20 MQΩ. The original current data was corrected by software for leakage reduction. TRPA1 current amplitude was measured at +100 mV. […] If IC50 value of HC030031 exceeded 3 times the average IC50 value previously obtained on each plate, it would be re-tested. The dose-effect curve of compounds and IC50 were fitted and calculated by GraphPad Prism 5.02 (GraphPad Software, San Diego, CA).\nSome compounds in the examples of the present invention were detected by lonWorks Barracuda (IWB) automated patch clamp detection method for IC50 inhibitory activity."}, "SH-SY5Y cells": {"test_system": "SH-SY5Y cells", "test": "Cytotoxicity test (CCK-8), neurotoxicity", "type": "cell-based", "conditions": "Homo sapiens, 72 h", "procedure": "In this example, hepatotoxicity and neurotoxicity of compound I-1 and S-duloxetine were detected.\nHepG-2 and SH-SY5Y cells were placed in 10 cm dish and cultured at 37° C., 5% CO2 in a cell incubator. Trypsin was used to digest and resuspend cells and cells were counted. The cells were transferred to 96-well plate with 8000 cells in a well (100 μl/well), cultured at 37° C., 5% CO2 in a cell incubator for 24 hrs. A serial of gradient concentration dilutions of compound I-1 (prepared in example 2 of the present invention) with 2-fold dilution were prepared, and the system was 100 μL/well. The supernatant of cell culture system in the 96-well plate was removed on the first day, and fresh-prepared drug concentration system was add into culture plate wells (duplicate wells were set). The cells were cultured at 37° C., 5% CO2 in a cell incubator for 72 h. […] Microplate reader was used to measure the absorbance at 450 nm. Data was processed to calculate cytotoxicity, and IC50 was calculated by GraphPad Prism. […]\nA (Dosing): the absorbance of wells containing cells, CCK-8 solution and drug solution.\nA (control): the absorbance of wells containing medium and CCK-8 solution and without cells.\nA (0 Dosing): the absorbance of wells containing cells and CCK-8 solution but without drug solution […]"}}, "note": "Like-named read-outs stand apart in the source and are kept apart here."}
{"smiles": "CNCC[C@@H](Oc1cccc2ccoc12)c1cccs1", "note": "[Compound I-1, (R)-3-(benzofuran-7-yloxy)-N-methyl-3-(thiophen-2-yl)propyl-1-amine]", "values": [{"measurement": "number of appearance of writhing reactions (visceral pain) within 30 min", "setting": "ICR mice; 5 mg/kg by gavage", "value": 19, "unit": "times"}, {"measurement": "number of visceral pain lower than the saline control group", "setting": "ICR mice; 5 mg/kg by gavage, 19 times vs 49 times", "value": 50, "unit": "%"}, {"measurement": "number of appearance of writhing reactions (visceral pain) within 30 min", "setting": "ICR mice; 10 mg/kg by gavage", "value": 16, "unit": "times"}, {"measurement": "PWT(g), claw withdrawal threshold", "setting": "SD rats", "value": "7.869 ± 2.846", "unit": "g"}, {"measurement": "IC50", "setting": "TRPA1; FIG. 1, read-out: IC50 on TRPA1, automated patch clamp", "value": 2.06, "unit": "µM"}, {"measurement": "IC50", "setting": "TRPA1; current induced by AITC, read-out: IC50 (μM), inhibitory activity on TRPA1 in the automated patch clamp detection test", "value": "1 to 5", "unit": "µM"}, {"measurement": "activity ratio, IC50 of compound C2/IC50 of compound I-1", "setting": "TRPA1; TRPA1, automated patch clamp", "value": "about 6.3"}, {"measurement": "IC50", "setting": "SH-SY5Y cells", "value": "~101", "unit": "µM"}]}
